This passage reports inhibition results from PMC9516332 (Frontiers in Oncology, 2022).

What all share (assay): Kinase panel profiling at 1 µmol/L (MSA or IMAP), percentage inhibition
Common to all, as to assay type: biochemical

For experiment [1], the target named is panel of 255 wild-type kinases (Homo sapiens, UniProt P06241). The note with it: kinase FYN [isoform a]; 1 µmol/L single concentration; read-out: %-inhibition at 1 µmol/L, FYN [isoform a].
Experiment [2] addresses panel of 255 wild-type kinases (Homo sapiens, UniProt P06493). As to conditions: CDC2/CycB1 kinase assay; 1 µmol/L single concentration; read-out: %-inhibition CDC2/CycB1.
Experiment [3] has as its target T1, panel of 255 wild-type kinases (Homo sapiens, UniProt P29322).
T1 sequence (P29322 28-1005): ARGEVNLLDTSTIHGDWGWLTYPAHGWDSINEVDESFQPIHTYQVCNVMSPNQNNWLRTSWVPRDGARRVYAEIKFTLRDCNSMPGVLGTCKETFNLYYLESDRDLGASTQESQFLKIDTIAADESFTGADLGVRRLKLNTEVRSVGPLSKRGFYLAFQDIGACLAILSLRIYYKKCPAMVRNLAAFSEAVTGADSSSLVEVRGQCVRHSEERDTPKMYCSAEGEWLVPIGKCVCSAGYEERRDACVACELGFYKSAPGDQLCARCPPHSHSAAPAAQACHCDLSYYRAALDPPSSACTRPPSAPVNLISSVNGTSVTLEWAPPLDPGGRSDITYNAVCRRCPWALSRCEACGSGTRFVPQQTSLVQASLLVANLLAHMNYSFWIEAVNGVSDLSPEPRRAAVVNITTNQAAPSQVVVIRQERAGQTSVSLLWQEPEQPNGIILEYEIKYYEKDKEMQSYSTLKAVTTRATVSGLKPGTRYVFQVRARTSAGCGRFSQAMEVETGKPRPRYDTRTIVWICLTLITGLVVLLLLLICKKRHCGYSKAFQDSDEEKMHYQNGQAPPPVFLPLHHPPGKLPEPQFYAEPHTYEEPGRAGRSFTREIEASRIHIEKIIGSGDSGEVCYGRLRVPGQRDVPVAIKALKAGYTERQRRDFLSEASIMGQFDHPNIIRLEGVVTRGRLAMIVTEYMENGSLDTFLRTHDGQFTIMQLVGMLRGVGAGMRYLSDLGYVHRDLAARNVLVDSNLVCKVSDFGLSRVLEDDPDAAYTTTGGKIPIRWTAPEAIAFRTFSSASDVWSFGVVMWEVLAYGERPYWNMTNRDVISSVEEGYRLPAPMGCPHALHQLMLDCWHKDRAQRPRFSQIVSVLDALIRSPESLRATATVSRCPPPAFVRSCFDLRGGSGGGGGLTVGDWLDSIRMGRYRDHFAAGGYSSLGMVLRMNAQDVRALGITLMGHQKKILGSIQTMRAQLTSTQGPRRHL
The note with it: kinase EPHA8; 1 µmol/L single concentration; read-out: %-inhibition at 1 µmol/L, EPHA8.

The target of experiment [4] is panel of 255 wild-type kinases (Homo sapiens, UniProt P50613). As to conditions: CDK7/CycH/MAT1 kinase assay; 1 µmol/L single concentration; read-out: %-inhibition CDK7/CycH/MAT1.
The target in experiment [5] is panel of 255 wild-type kinases (Homo sapiens, UniProt Q16288). As to conditions: kinase TRKC; 1 µmol/L single concentration; read-out: %-inhibition at 1 µmol/L, TRKC.
In experiment [6] the target is T2, panel of 255 wild-type kinases (Homo sapiens, UniProt Q16566).
T2 sequence (Q16566 1-473): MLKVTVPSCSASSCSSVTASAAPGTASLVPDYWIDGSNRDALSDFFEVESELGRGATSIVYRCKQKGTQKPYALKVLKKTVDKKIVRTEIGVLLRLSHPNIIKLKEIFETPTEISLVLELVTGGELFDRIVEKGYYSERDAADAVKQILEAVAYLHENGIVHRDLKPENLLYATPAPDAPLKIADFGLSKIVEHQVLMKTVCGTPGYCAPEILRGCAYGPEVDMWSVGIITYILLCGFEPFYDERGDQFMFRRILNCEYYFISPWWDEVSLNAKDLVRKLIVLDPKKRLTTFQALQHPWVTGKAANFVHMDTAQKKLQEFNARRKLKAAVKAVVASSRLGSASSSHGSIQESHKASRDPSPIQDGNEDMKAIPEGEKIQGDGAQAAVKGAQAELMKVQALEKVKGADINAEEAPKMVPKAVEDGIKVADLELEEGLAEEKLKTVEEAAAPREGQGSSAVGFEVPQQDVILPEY
As to conditions: CaMK4 kinase assay; 1 µmol/L single concentration; read-out: %-inhibition CaMK4.

The target of experiment [7] is T3, panel of 255 wild-type kinases (Homo sapiens, UniProt Q8IW41).
T3 sequence (Q8IW41 1-473): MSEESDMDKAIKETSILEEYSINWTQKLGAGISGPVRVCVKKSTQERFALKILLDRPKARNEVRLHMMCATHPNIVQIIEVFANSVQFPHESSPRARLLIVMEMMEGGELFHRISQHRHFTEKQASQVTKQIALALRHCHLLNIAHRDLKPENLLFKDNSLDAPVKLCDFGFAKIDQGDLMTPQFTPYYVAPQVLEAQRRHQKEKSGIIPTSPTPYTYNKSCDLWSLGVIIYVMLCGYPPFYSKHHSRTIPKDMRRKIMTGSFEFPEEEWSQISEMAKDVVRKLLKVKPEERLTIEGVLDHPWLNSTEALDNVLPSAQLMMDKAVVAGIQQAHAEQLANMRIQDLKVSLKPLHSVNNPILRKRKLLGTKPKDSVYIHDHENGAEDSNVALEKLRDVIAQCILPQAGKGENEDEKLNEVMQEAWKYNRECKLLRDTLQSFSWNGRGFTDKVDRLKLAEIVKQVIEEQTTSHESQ
As to conditions: MAPKAPK5; 1 µmol/L single concentration; read-out: %-inhibition, MAPKAPK5.

For experiment [8], the target named is panel of 255 wild-type kinases (Homo sapiens, UniProt Q9H0K1). As to conditions: kinase QIK; 1 µmol/L single concentration; read-out: %-inhibition at 1 µmol/L, QIK.
Experiment [9] addresses panel of 255 wild-type kinases (Homo sapiens, UniProt Q9H2G2). As to conditions: kinase SLK; 1 µmol/L single concentration; read-out: %-inhibition at 1 µmol/L, SLK.

Turning to `CCN1CCN(c2ccc(Nc3cc(N(C)C(=O)Nc4c(Cl)c(OC)cc(OC)c4Cl)ncn3)cc2)CC1` [infigratinib], the inhibition at 1 µM in [1] is 40%; in experiment [2], -9%; in experiment [3], -10%; in experiment [4], 9%; in experiment [5], 6%; in experiment [6] it was 2.47%. Besides, the inhibition at 1 µM in [7] is -6%; in experiment [8], 26%; in [9], 16%.

On to `O=C(Nc1cnn2ccc(N3CCC[C@@H]3c3cc(F)ccc3F)nc12)N1CC[C@H](O)C1` [larotrectinib], for which the inhibition at 1 µM in [1] was 1.82%; in experiment [2], -7%; in experiment [3] it was -9%; in experiment [4], -8%; in experiment [5], 101%; in [6], 0.861%. In addition, the inhibition at 1 µM was -3% in [7], -6.33% in [8] and 5.58% in experiment [9].

Regarding `CCN1C(=O)N(c2c(F)c(OC)cc(OC)c2F)Cc2cnc3[nH]c(CN4CCOCC4)cc3c21` [pemigatinib], the inhibition at 1 µM is 9% in [1]; 10% in experiment [2]; -6% in experiment [3]; -12% in experiment [4]; -0.168% in experiment [5]; 1.2% in [6]. Besides, the inhibition at 1 µM was determined as 2.28% in experiment [7], 6.5% in [8] and 0.681% in experiment [9].

Consider `FC(F)(F)c1ccc(CNc2ccc(Cc3c[nH]c4ncc(Cl)cc34)cn2)cn1` [pexidartinib], for which the inhibition at 1 µM in experiment [1] is -9%; in experiment [2], 32%; in experiment [3], 6.33%; in [4] it was 22%; in experiment [5] it was 81%; in experiment [6] it was 4%. Further, the results for the inhibition at 1 µM in experiment [7], in experiment [8] and in experiment [9] were 0.469%, 11% and 11%, respectively.

Take `CO[C@]1(C(=O)N[C@@H](C)c2ccc(-n3cc(F)cn3)nc2)CC[C@H](c2nc(C)cc(Nc3cc(C)[nH]n3)n2)CC1` [pralsetinib]: the inhibition at 1 µM in experiment [1] turned out to be 82%; in experiment [2], 15%; in experiment [3], 84%; in experiment [4] it was 19%; in experiment [5] it was 98%; in experiment [6], 0.271%. The inhibition at 1 µM is -3.49% in experiment [7], -2.55% in [8] and 17% in experiment [9].

With `CCn1c(=O)c(-c2cc(NC(=O)Nc3ccccc3)c(F)cc2Br)cc2cnc(NC)cc21` [ripretinib], the inhibition at 1 µM in experiment [1] was 23%; in experiment [2], -5.56%; in [3] it was 101%; in [4] it was -1.48%; in [5], 54%; in [6] it was 1.71%. Moreover, the inhibition at 1 µM in [7] was -3.71%; in experiment [8], 7%; in experiment [9], 18%.

Regarding `COc1ccc(CN2C3CC2CN(c2ccc(-c4cc(OCC(C)(C)O)cn5ncc(C#N)c45)cn2)C3)cn1` [selpercatinib], the inhibition at 1 µM in [1] was 24%; in [2] it was -4%; in experiment [3] it was 45%; in experiment [4], 6%; in experiment [5], 10%; in experiment [6], -2.54%. Moreover, the inhibition at 1 µM was -1.78% in experiment [7], -2.53% in experiment [8] and 14% in experiment [9].

Consider `Cn1cnc2c(F)c(Nc3ccc(Br)cc3Cl)c(C(=O)NOCCO)cc21` [selumetinib], for which the inhibition at 1 µM in experiment [1] is -3.52%; in experiment [2], -11%; in [3], -12%; in experiment [4] it was 1.7%; in [5] it was 10%; in [6] it was -2%. Also, the inhibition at 1 µM in [7] is -3.2%; in experiment [8], -4%; in experiment [9], 8%.

For `Cc1cc(Nc2ncnc3ccc(NC4=NC(C)(C)CO4)cc23)ccc1Oc1ccn2ncnc2c1` [tucatinib], the inhibition at 1 µM was 2.29% in experiment [1]; -7% in experiment [2]; -14% in experiment [3]; 6% in experiment [4]; 2.53% in experiment [5]; 0.435% in experiment [6]. The inhibition at 1 µM in experiment [7] was 2%; in experiment [8] it was -2.58%; in [9], 11%.
